Laboratory results published in patent US7282512B2, “Cycloalkyl ketoamides derivatives useful as cathepsin K inhibitors” (SmithKline Beecham Corporation, priority 2002, dated 2007).

Biological target: T1, rat cathepsin K (Rattus norvegicus, UniProt O35186)
T1 construct: The proform of cathepsin K was converted to mature cathepsin K by brief exposure to pH 4; made in house; host or cells: baculovirus; Trichoplusia ni High Five cells (virus raised in Sf-9)
T1 sequence (O35186 115-329): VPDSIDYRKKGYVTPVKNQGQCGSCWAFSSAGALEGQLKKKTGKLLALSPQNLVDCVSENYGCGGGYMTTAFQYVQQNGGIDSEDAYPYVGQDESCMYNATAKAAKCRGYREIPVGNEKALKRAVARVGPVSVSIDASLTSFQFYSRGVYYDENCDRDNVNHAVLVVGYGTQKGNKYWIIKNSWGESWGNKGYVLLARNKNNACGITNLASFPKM
Experiment: cathepsin K inhibition assay, fluorogenic substrate Cbz-Phe-Arg-AMC, progress curve method
Assay type: biochemical
Conditions: Table 2; rat recombinant enzyme, 10 μM substrate; read-out: rCat K Ki
Description: All assays for cathepsin K were carried out with human and rat recombinant enzyme. Assays for cathepsins S & V were also carried out with human recombinant enzyme. Assays for human cathepsins B, H, and L were carried out with enzyme, purchased from Athens Research and Technology, Inc., prepared from human liver tissue. Standard assay conditions for the determination of kinetic constants used a fluorogenic peptide substrate, typically (5S,8S)-13-amino-5-benzyl-13-imino-3-methylene-N-(4-methyl-2-oxo-2H-chromen-7-yl)-6-oxo-1-phenyl-2-oxa-4,7,12-triazatridecane-8-carboxamide (Cbz-Phe-Arg-AMC), and were determined in 100 mM sodium acetate at pH 5.5 containing 10 mM dithiothreitol and 120 mM sodium chloride. A stock substrate solution of Cbz-Phe-Arg-AMC was prepared at a concentration of 50 mM in dimethyl sulfoxide. This substrate was diluted into the assay for a final substrate concentration of 10 μM in the rat cathepsin K, human cathepsin K, and human cathepsin B assays; a final substrate concentration of 5 μM in the human cathepsin L assay; and a final substrate concentration of 2 μM in the human cathepsin V assay.
All assays contained 10% dimethyl sulfoxide. […] All assays were conducted at 30° C. Product fluorescence (excitation at 360 nm; emission at 440 nm, (except cathepsin H which used excitation at 340 nm; emission at 420 nm)) was monitored with a PerSeptive Biosystems Cytofluor II fluorescence plate reader. Product progress curves were generated over 2.3 h monitoring the formation of 7-amino-4-methylcoumarin product (or β-naphthalamide for cathepsin H). […]
Protein Purification: Media (human and rat) were filtered through a Whatman 3 filter, and then loaded onto a 25 mL Poros HS II (26 mm×47 mm) cation exchange column equilibrated in 25 mM sodium acetate at pH 5.5 (equilibration buffer). The column was washed until the absorbance reached the baseline value, and then the protein was eluted with a linear gradient from 0-2 M sodium chloride in the equilibration buffer. Column fractions were analyzed by SDS-PAGE, N-terminal sequencing, and mass spectrometry. […]

Compound	Ki [nM]
CCCC[C@H](NC(=O)OC1(Cc2ccccc2)CCCC1)C(=O)C(=O)N[C@@H](C)C(=O)OCc1ccccc1 [Example 3, Benzyl (2S)-2-{[(3S)-3-({[(1-benzylcyclopentyl)oxy]carbonyl}amino)-2-oxoheptanoyl]amino}propanoate]	> 1000
CCCC[C@H](NC(=O)OCC1(Cc2ccc(F)cc2)CCC1)C(=O)C(=O)Nc1n[nH]c2cc(Cl)ccc12 [Example 15, [1-(4-fluorobenzyl)cyclobutyl]methyl(1S)-1-[[(6-chloro-1H-indazol-3-yl)amino](oxo)acetyl]pentylcarbamate]	10 to 100
CCCC[C@H](NC(=O)OC1(c2nc3ccccc3s2)CCCC1)C(=O)C(=O)Nc1ccn[nH]1 [Example 17, 1-(1,3-Benzothiazol-2-yl)cyclopentyl(1S)-1-[oxo(1H-pyrazol-3-ylamino)acetyl]pentylcarbamate]	10 to 100
